Measurements taken from patent US20250221410A1, “SUBSTITUTED 2-C-AZINES AND SALTS THEREOF, AND USE THEREOF AS HERBICIDAL ACTIVE SUBSTANCES” (BAYER AKTIENGESELLSCHAFT, priority 2022, published 2025).

How the values were obtained:
Format in all cases: in vivo
STEME: Stellaria media [1] = experiment: Post-emergence herbicidal efficacy at 1280 g/ha, STEME; settings: visual rating about 3 weeks after treatment vs untreated controls
Experimental: (§1) Seeds of mono- and dicotyledonous weed plants were placed in plastic pots in sandy loam soil (doubly sown with in each case one species of mono- or dicotyledonous weed plants per pot), covered with soil and cultivated in a greenhouse under controlled growth conditions. 2 to 3 weeks after sowing, the test plants were treated at the one-leaf stage. The compounds of the invention, formulated in the form of wettable powders (WP) or as emulsion concentrates (EC), were applied to the green parts of the plants as aqueous suspension or emulsion with addition of 0.5% additive at a water application rate equivalent to 600 litres per hectare. After the test plants had been kept in the greenhouse under optimum growth conditions for about 3 weeks, the activity of the preparations was rated visually in comparison to untreated controls. For example, 100% activity=the plants have died, 0% activity=like control plants. Tables A1 to A12 below show the effects of selected compounds of the general formula (I) according to Table 1 on various harmful plants and at an application rate corresponding to 1280 g/ha, which were obtained by the trial procedure specified above.

[2] = system: ABUTH: Abutilon theophrasti; experiment: Post-emergence herbicidal efficacy at 1280 g/ha, ABUTH; settings: rated visually after about 3 weeks vs untreated controls, 100% = plants have died, 0% = like control plants
Experimental: as §1

SETVI: Setaria viridis [3] = experiment: Pre-emergence herbicide efficacy at 1280 g/ha, SETVI; settings: visual scoring vs untreated controls
From the text: (§2) Seeds of mono- and dicotyledonous weed plants were placed in plastic pots in sandy loam soil (doubly sown with one species each of mono- or dicotyledonous weed plants per pot) and covered with soil. The compounds of the invention, formulated in the form of wettable powders (WP) or as emulsion concentrates (EC), were then applied to the surface of the covering soil as aqueous suspension or emulsion with addition of 0.5% additive at a water application rate of 600 litres per hectare (converted). After the treatment, the pots were placed in a greenhouse and kept under good growth conditions for the test plants. After about 3 weeks, the efficacy of the preparations was scored visually in comparison with untreated controls as percentages. For example, 100% activity=the plants have died, 0% activity=like control plants. Tables C1 to C12 below show the effects of selected compounds of the general formula (I) according to Table 1 on various harmful plants and at an application rate corresponding to 1280 g/ha, which were obtained by the trial procedure specified above.

KCHSC: Kochia scoparia [4] = experiment: Post-emergence herbicidal efficacy at 1280 g/ha, KCHSC; settings: visual rating about 3 weeks after treatment vs untreated controls
Experimental: as §1

POAAN: Poa annua [5] = experiment: Post-emergence herbicidal efficacy at 1280 g/ha, POAAN; settings: visual rating about 3 weeks after treatment vs untreated controls
Experimental: as §1

[6] = system: AMARE: Amaranthus retroflexus; experiment: Pre-emergence herbicide efficacy at 1280 g/ha, AMARE; settings: visual scoring after about 3 weeks vs untreated controls
From the text: as §2

KCHSC: Kochia scoparia [7] = experiment: Pre-emergence herbicide efficacy at 1280 g/ha, KCHSC; settings: visual scoring after about 3 weeks vs untreated controls
From the text: as §2

[8] = system: AMARE: Amaranthus retroflexus; experiment: Post-emergence herbicidal efficacy at 1280 g/ha, AMARE; settings: rated visually after about 3 weeks vs untreated controls, 100% = plants have died, 0% = like control plants
Experimental: as §1

[9] = system: DIGSA: Digitaria sanguinalis; experiment: Pre-emergence herbicide efficacy at 1280 g/ha, DIGSA; settings: visual scoring after about 3 weeks vs untreated controls
From the text: as §2

[10] = system: ECHCG: Echinochloa crus-galli; experiment: Pre-emergence herbicide efficacy at 1280 g/ha, ECHCG; settings: visual scoring after about 3 weeks vs untreated controls
From the text: as §2

POAAN: Poa annua [11] = experiment: Pre-emergence herbicide efficacy at 1280 g/ha, POAAN; settings: visual scoring after about 3 weeks vs untreated controls
From the text: as §2

VERPE: Veronica persica [12] = experiment: Post-emergence herbicidal efficacy at 1280 g/ha, VERPE; settings: visual rating about 3 weeks after treatment vs untreated controls
Experimental: as §1

[13] = system: DIGSA: Digitaria sanguinalis; experiment: Post-emergence herbicidal efficacy at 1280 g/ha, DIGSA; settings: rated visually after about 3 weeks vs untreated controls, 100% = plants have died, 0% = like control plants
Experimental: as §1

SETVI: Setaria viridis [14] = experiment: Post-emergence herbicidal efficacy at 1280 g/ha, SETVI; settings: visual rating about 3 weeks after treatment vs untreated controls
Experimental: as §1

[15] = system: ECHCG: Echinochloa crus-galli; experiment: Post-emergence herbicidal efficacy at 1280 g/ha, ECHCG; settings: rated visually after about 3 weeks vs untreated controls, 100% = plants have died, 0% = like control plants
Experimental: as §1

[16] = system: ABUTH: Abutilon theophrasti; experiment: Pre-emergence herbicide efficacy at 1280 g/ha, ABUTH; settings: visual scoring after about 3 weeks vs untreated controls
From the text: as §2

VERPE: Veronica persica [17] = experiment: Pre-emergence herbicide efficacy at 1280 g/ha, VERPE; settings: visual scoring vs untreated controls
From the text: as §2

STEME: Stellaria media [18] = experiment: Pre-emergence herbicide efficacy at 1280 g/ha, STEME; settings: visual scoring vs untreated controls
From the text: as §2

SMILES	Post-emergence efficacy against STEME (STEME: Stellaria media [1]) [%]	Post-emergence efficacy at 1280 g/ha against ABUTH in % [2] [%]	Pre-emergence efficacy against SETVI in % (SETVI: Setaria viridis [3]) [%]	Post-emergence efficacy against KCHSC (KCHSC: Kochia scoparia [4]) [%]	Post-emergence efficacy against POAAN (POAAN: Poa annua [5]) [%]	Pre-emergence efficacy against AMARE [6] [%]	Pre-emergence efficacy against KCHSC (KCHSC: Kochia scoparia [7]) [%]	Post-emergence efficacy at 1280 g/ha against AMARE in % [8] [%]	Pre-emergence efficacy against DIGSA [9] [%]	Pre-emergence efficacy against ECHCG [10] [%]	Pre-emergence efficacy against POAAN (POAAN: Poa annua [11]) [%]	Post-emergence efficacy against VERPE (VERPE: Veronica persica [12]) [%]	Post-emergence efficacy at 1280 g/ha against DIGSA in % [13] [%]	Post-emergence efficacy against SETVI (SETVI: Setaria viridis [14]) [%]	Post-emergence efficacy at 1280 g/ha against ECHCG in % [15] [%]	Pre-emergence efficacy against ABUTH [16] [%]	Pre-emergence efficacy against VERPE in % (VERPE: Veronica persica [17]) [%]	Pre-emergence efficacy against STEME in % (STEME: Stellaria media [18]) [%]
FC(F)(F)CCCc1ccccc1Cc1ncc(Cl)cn1 [Example 1-1]	100	90	90	90	90	100	90	100	100	90	90	100	90	–	–	–	–	–
Fc1ccc(-c2ccccc2Cc2ncc(Cl)cn2)cc1F [Example 1-26]	100	100	90	100	90	100	100	100	100	90	100	100	90	90	90	90	–	–
Fc1cnc(Cc2ccccc2-c2ccc(F)c(F)c2)nc1 [Example 1-27]	90	90	100	90	90	100	90	100	100	90	90	90	90	90	–	100	100	–
Cc1cccc(Cc2ncc(Cl)cn2)c1Oc1ccc(F)cc1 [Example 1-31]	90	100	100	–	90	90	–	90	100	100	100	90	–	90	100	–	–	–
Fc1ccc(Oc2c(Br)cccc2Cc2ncc(Cl)cn2)cc1 [Example 1-37]	90	100	100	100	100	100	–	100	100	90	90	100	90	–	100	–	–	90
N#Cc1cccc(Cc2ncc(Cl)cn2)c1Oc1ccc(F)cc1 [Example 1-38]	100	100	100	100	90	100	–	100	100	100	100	100	90	90	100	–	100	100
Fc1ccc(Oc2ccccc2Cc2ncc(Br)cn2)cc1 [Example 1-87]	90	100	100	100	100	100	–	100	100	90	–	100	–	90	90	–	–	–
Fc1cnc(Cc2ccccc2Oc2ncc(Cl)cc2F)nc1 [Example 1-90]	90	90	90	100	100	100	100	100	100	100	100	100	90	–	–	100	100	90
Fc1ccc(Sc2ccccc2Cc2ncc(Cl)cn2)cc1 [Example 1-99]	100	90	100	100	100	100	–	100	100	100	100	90	90	90	100	90	–	100
Fc1cc(Cl)cnc1Oc1ccccc1Cc1ccc(Cl)cn1 [Example 1-101]	90	90	100	–	100	100	–	100	100	100	100	100	–	–	90	90	–	100
